Assay results taken from ChEMBL document CHEMBL2029344, “A new class of prolylcarboxypeptidase inhibitors, part 2: the aminocyclopentanes” (Bioorg Med Chem Lett, 2012).

Experiments:
[1] = Percentage unbound in 10% mouse plasma; format: ADME, cell-free
[2] = Stability in mouse liver microsomes after 30 mins by LC/MS analysis; format: ADME, Microsome; details: read-out: Stability
[3] = molecular target: T1, Lysosomal Pro-X carboxypeptidase (Mus musculus, UniProt Q7TMR0); test: Inhibition of mouse PrCP
T1 sequence (Q7TMR0 whole entry): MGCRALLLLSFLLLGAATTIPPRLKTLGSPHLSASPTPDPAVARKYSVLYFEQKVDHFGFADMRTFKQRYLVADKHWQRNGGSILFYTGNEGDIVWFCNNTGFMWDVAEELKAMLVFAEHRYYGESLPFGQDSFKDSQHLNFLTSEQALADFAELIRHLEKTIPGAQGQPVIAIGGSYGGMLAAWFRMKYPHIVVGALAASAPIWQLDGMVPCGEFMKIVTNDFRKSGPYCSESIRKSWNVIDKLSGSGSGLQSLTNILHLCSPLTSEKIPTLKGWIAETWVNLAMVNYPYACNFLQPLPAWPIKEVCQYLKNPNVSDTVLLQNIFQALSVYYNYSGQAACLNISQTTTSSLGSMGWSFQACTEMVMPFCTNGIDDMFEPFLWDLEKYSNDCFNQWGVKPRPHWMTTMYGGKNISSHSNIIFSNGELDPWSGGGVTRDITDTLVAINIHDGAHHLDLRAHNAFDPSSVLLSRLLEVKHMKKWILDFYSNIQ

[4] = Stability in human liver microsomes after 30 mins by LC/MS analysis; format: ADME, Microsome; details: read-out: Stability
[5] = Percentage unbound in 10% human plasma; format: ADME, cell-free
[6] = molecular target: Mus musculus; test: Ex-vivo inhibition of po dosed mouse PrCP by FRET analysis in absence of plasma; format: functional, organism-based
[7] = molecular target: Mus musculus; test: Ex-vivo inhibition of po dosed mouse PrCP by FRET analysis in presence of heat inactivated 25% plasma; format: functional, organism-based
[8] = molecular target: Mus musculus; test: Ex-vivo inhibition of po dosed mouse PrCP by FRET analysis in presence of heat inactivated 100% plasma; format: functional, organism-based
[9] = Drug uptake in C57 mouse plasma at 10 mg/kg, po after 20 hrs by LC/MS analysis; format: ADME, organism-based; set-up: dose 10 mg/kg, route oral
[10] = tested on: Mus musculus; test: Ex-vivo inhibition of PrCP in heat inactivated 100% plasma of C57 mouse assessed as target engagement calculated as [cmpd]plasma/([cmpd]plasma + Ki (heat inactivated plasma))x100 at 10 mg/kg, po after 20 hrs by FRET analysis; format: functional; set-up: scale not given: the % may be the effect or the level left
[11] = tested on: Mus musculus; test: Toxicity in po dosed C57 mouse; format: organism-based; details: in vivo
[12] = Drug uptake in C57 mouse brain at 10 mg/kg, po after 20 hrs by LC/MS analysis; format: ADME, organism-based; set-up: dose 10 mg/kg, route oral; details: read-out: Drug uptake
[13] = Apparent permeability across pig LLC-PK1 cells at 1 uM; format: ADME, cell-based, Sus scrofa
[14] = tested on: Mus musculus; test: Ex-vivo inhibition of PrCP in heat inactivated 100% plasma of po dosed C57 mouse assessed as target engagement after 20 hrs by FRET analysis; format: functional; set-up: scale not given: the % may be the effect or the level left
[15] = Ratio of drug uptake in brain to plasma of C57 mouse at 10 mg/kg, po after 20 hrs by LC/MS analysis; format: ADME, organism-based; set-up: dose 10 mg/kg, route oral; details: read-out: BPR
[16] = tested on: Mus musculus; test: Ex-vivo inhibition of PrCP in heat inactivated 100% plasma of C57 mouse assessed as target engagement at 10 mg/kg, po after 20 hrs by FRET analysis; format: functional; set-up: scale not given: the % may be the effect or the level left
[17] = Volume of distribution in mouse at 1 mg/kg, iv and 30 mg/kg, po; format: ADME, organism-based; details: in vivo
[18] = Clearance in mouse at 1 mg/kg, iv and 30 mg/kg, po; format: ADME, organism-based; details: in vivo
[19] = tested on: Mus musculus; test: Ex-vivo inhibition of PrCP in heat inactivated 100% plasma of C57 mouse assessed as target engagement calculated as [cmpd]plasma/([cmpd]plasma + Ki (heat inactivated plasma))x100 at 30 mg/kg, po after 20 hrs by FRET analysis; format: functional; set-up: scale not given: the % may be the effect or the level left
[20] = Ratio of drug uptake in brain to plasma of C57 mouse at 30 mg/kg, po after 20 hrs by LC/MS analysis; format: ADME, organism-based; set-up: dose 30 mg/kg, route oral; details: read-out: BPR
[21] = tested on: Mus musculus; test: Ex-vivo inhibition of PrCP in heat inactivated 100% plasma of C57 mouse assessed as target engagement at 30 mg/kg, po after 20 hrs by FRET analysis; format: functional; set-up: scale not given: the % may be the effect or the level left
[22] = tested on: Mus musculus; test: Dose normalized AUC in mouse at 1 mg/kg, iv and 30 mg/kg, po; format: ADME, organism-based; details: in vivo
[23] = Oral bioavailability in mouse at 30 mg/kg; format: ADME, organism-based; details: in vivo

SMILES	fraction unbound [1]	remaining at 0.5 h [2]	IC50 [3]	remaining at 0.5 h [4]	fraction unbound [5]	Ki [6]	Ki [7]	Ki [8]	further results
C[C@]1(N)C[C@H](C(=O)N2CCC(c3ccnn3-c3ccc(F)c(Cl)c3)CC2)[C@@H](c2ccc(F)cc2F)C1	0.061	89%	2.6 nM	33%	0.1				
Cc1nc(C2CCN(C(=O)[C@@H]3C[C@@](C)(N)C[C@H]3c3ccc(F)cc3F)CC2)n(-c2ccc(Cl)c(C)c2)n1	0.102	72%	85.1 nM	78%	0.076	11 nM	26.7 nM	73.9 nM	
Cc1cc(C2CCN(C(=O)[C@@H]3C[C@](C)(N)C[C@H]3c3ccc(F)cc3F)CC2)n(-c2ccc(F)c(Cl)c2)n1	0.043				0.069	10.9 nM	24.7 nM	66.1 nM	
Cc1cc(C2CCN(C(=O)[C@@H]3C[C@@](C)(N)C[C@H]3c3ccc(F)cc3F)CC2)n(-c2cc(Cl)ccc2Cl)n1	0.02	78%	0.9 nM	39%	0.071	1 nM	2.1 nM	5.2 nM	
CN(C)[C@]1(C)C[C@H](C(=O)N2CCC(c3ccnn3-c3ccc(F)c(Cl)c3)CC2)[C@@H](c2ccc(F)cc2F)C1	0.091	23%		1%	0.144				concentration at 20 h [9]: 305 nM; Activity [10]: 99.6%; Activity [11]: Non-toxic; concentration at 20 h [12]: 26 nM; Papp at 1 µM [13]: 23.1 ×10⁻⁶ cm/s; Activity [14]: 38%; Kp at 20 h [15]: 0.09; Activity [16]: >=100%
C[C@@]1(N)C[C@@H](C(=O)N2CCC(c3ncnn3-c3ccc(F)c(Cl)c3)CC2)[C@H](c2ccc(F)cc2F)C1	0.15		16 nM		0.21				
Cc1nc(C2CCN(C(=O)[C@@H]3C[C@@H](N(C)C)C[C@H]3c3ccc(F)cc3F)CC2)n(-c2ccc(Cl)c(C)c2)n1	0.32		41 nM		0.22				
Cc1cc(C2CCN(C(=O)[C@@H]3C[C@@](C)(N(C)C)C[C@H]3c3ccc(F)cc3F)CC2)n(-c2cc(Cl)ccc2Cl)n1	0.013	33.6%	0.4 nM	12%	0.087	0.5 nM	0.9 nM	2.1 nM	
Cc1cc(C2CCN(C(=O)[C@@H]3CN(C(C)(C)C)C[C@H]3c3ccc(F)cc3F)CC2)n(-c2cc(Cl)ccc2Cl)n1									Vd [17]: 13 L/kg; clearance [18]: 48 mL/min/kg; Activity [19]: 99.8%; Kp at 20 h [20]: 1.35; Activity [21]: 97.7%; AUC/dose [22]: 0.19 µM·kg·h/mg; bioavailability [23]: 31%
Cc1nc(C2CCN(C(=O)[C@@H]3C[C@@](C)(N)C[C@H]3c3ccc(F)cc3F)CC2)n(-c2ccc(F)c(Cl)c2)n1	0.127		11.2 nM		0.205	4.6 nM	4.6 nM	4.6 nM	
Cc1nc(C2CCN(C(=O)[C@@H]3C[C@@](C)(N)C[C@H]3c3ccc(F)cc3F)CC2)n(-c2cc(Cl)ccc2Cl)n1	0.091	79%	4.1 nM	79%	0.245	3.7 nM	4.7 nM	8 nM	
Cc1nc(C2CCN(C(=O)[C@@H]3C[C@H](N(C)C)C[C@H]3c3ccc(F)cc3F)CC2)n(-c2ccc(Cl)c(C)c2)n1			65 nM						
CN(C)[C@@]1(C)C[C@H](C(=O)N2CCC(c3ccnn3-c3ccc(F)c(Cl)c3)CC2)[C@@H](c2ccc(F)cc2F)C1	0.132	34%		2%	0.104				
Cc1nc(C2CCN(C(=O)[C@@H]3C[C@@](C)(N(C)C)C[C@H]3c3ccc(F)cc3F)CC2)n(-c2ccc(F)c(Cl)c2)n1	0.22				0.32	1.1 nM	1.1 nM	1.1 nM	
Cc1nc(C2CCN(C(=O)[C@@H]3C[C@](C)(N)C[C@H]3c3ccc(F)cc3F)CC2)n(-c2ccc(F)c(Cl)c2)n1		93%	47.8 nM	91%					
Cc1nc(C2CCN(C(=O)[C@@H]3C[C@@](C)(N(C)C)C[C@H]3c3ccc(F)cc3F)CC2)n(-c2cc(Cl)ccc2Cl)n1	0.14	6%	2 nM	18%	0.33	1 nM	1 nM	1 nM	
Cc1nc(C2CCN(C(=O)[C@@H]3CN(C(C)(C)C)C[C@H]3c3ccc(F)cc3F)CC2)n(-c2ccc(Cl)c(C)c2)n1									Vd [17]: 17 L/kg; clearance [18]: 128 mL/min/kg; AUC/dose [22]: 0.05 µM·kg·h/mg; bioavailability [23]: 20%
Cc1nc(C2CCN(C(=O)[C@@H]3C[C@@](C)(N(C)C)C[C@H]3c3ccc(F)cc3F)CC2)n(-c2ccc(Cl)c(C)c2)n1	0.22	47%	2.5 nM	27%	0.05	2.9 nM	6.3 nM	16.6 nM	
Cc1cc(C2CCN(C(=O)[C@@H]3C[C@@](C)(N(C)C)C[C@H]3c3ccc(F)cc3F)CC2)n(-c2ccc(F)c(Cl)c2)n1	0.035		0.5 nM		0.064	0.6 nM	1.5 nM	4.5 nM	
